We go through one molecule from patent US9303069B2, “Peptides for treating cancer” (University of Mississippi Medical Center, priority 2014, dated 2016).

SMILES strings stand for the structures.

The test system of experiment [1] is HME, HME/IRIS, MDA-MB-231, MDA-MB-468 and BT549 cells. Put plainly: Survival of breast cell lines with IRIS peptide, paclitaxel or both. The experiment is classed as cell-based, human. The note with it: all cell lines, 24 hours. Here is the method:
(§1) To investigate whether inactivating BRCA1-IRIS could sensitize TNBC to paclitaxel-induced cell death, HME cells were exposed to 0.5 μM, while HME/IRIS, MDA-MB-231, MDA-MB-468 and BT549 cells were exposed to 5 μM of IRIS peptide alone or with 5, 10 or 20 μM of paclitaxel for 24 hours. […] Again, IRIS peptide alone at these concentrations led to 50% reduction in survival of all cell lines. […] Indeed, in the presence of IRIS peptide >60%, >70% and >90% reduction in the survival of all cell lines in the presence of 5, 10 and 20 μM of paclitaxel, respectively (FIG. 84).
Cell viability measurement. Cell viability under different experimental conditions was determined using the MTS assay. Briefly, cells (2.5×10^4 cells per well) were seeded in 96-well plates and incubated overnight at 37° C. in 10% humidified CO2 atmosphere. The next day they were incubated with varying concentration of peptide, or inhibitors for 24 hours at 37° C. Cell viability was determined using cell Titer 96® Aqueous (Promega, Madison, Wis., USA) following manufacturer's instructions. Cell viability (%) was expressed as a ratio of treated cells to control cells×100. Growth inhibition was also determined by manually counting cells in five different microscopic fields. Change in cell numbers (fold) was expressed as a ratio of the means of these recording of treated cells compared to control cells×100. Each experiment was done in triplicate, repeated three separate times.

Experiment [2] has as its system BRCA1-IRIS. Put plainly: BRCA1-IRIS expression in breast cells (Western). The format is cell-based, human. Here is the method: HME and HME/IRIS cells were treated with 10, 20 and 50 μM of paclitaxel for 24 hours. Compared to HME/IRIS cells, untreated HME cells express very low level of BRCA1-IRIS (FIG. 68, left). […] Both EGF and NRG1, which were secreted at higher levels from untreated HME/IRIS cells, remained high after paclitaxel (until ˜50 μM, FIG. 68, left), whereas in HME cells, both were induced by low paclitaxel treatment (FIG. 68, left). Consistently, in HME/IRIS cells EGFR was phosphorylated on Y1173 (activated by EGF when EGFR is in complex with ErbB2) and ErbB2 on Y1248 (activated by NRG1 when ErbB2 is in complex with ErbB3) remained the same after paclitaxel treatment (until ˜50 μM, FIG. 68, left). Phosphorylated EGFR-Y1173 and ErbB2-Y1248 was only observed in paclitaxel treated HME cells, especially at low concentration (FIG. 68, left).
Survived/paclitaxel-resistant cells were then propagated in the absence of paclitaxel and analyzed. Again, the intrinsically high level of BRCA1-IRIS was not affected by paclitaxel in HME/IRIS cells (FIG. 69, left). […] The expressions of EGFR, ErbB2 and ErbB3 were high in HME/IRIS and HME cells (FIG. 69, left). Despite an intrinsic increase in HME/IRIS and paclitaxel-acquired increase in HME cells in AKT activation, FOXO inactivation/degradation and thus activation increase in CyclinD1, survivin, Bcl-2, Bcl-xL and NF-κB was observed (FIG. 69, right).
To test that hypothesis, an intron 11 peptide (right in FIG. 26) fused to a cell/nucleus penetrating signal at its N-terminus (left in FIG. 26) was synthesized (hereafter IRIS peptide). First, to assess the effect of this IRIS peptide, equal numbers of HME, HME/IRIS, MDA-MB-231, MDA-MB-468 and BT549 cells were exposed to increasing concentrations of scrambled or IRIS peptide for 48 hours. […] It is possible that preventing BRCA1-IRIS-X complex formation destabilizes BRCA1-IRIS and perhaps leads to its degradation.
as §1
To relate the effect of IRIS peptide on cell survival to the effect of BRCA1-IRIS on AKT and ERK survival pathways, MDA-MB-231 and MDA-MB-468 were treated with vehicle, 5 μM of IRIS peptide, 10 μM LY294002, 10 μM PD98059 for 24 hours or were transfected with BRCA1-IRIS siRNA for 72 hours.

In experiment [3] the test system is MDA-MB-468 tumors. Put plainly: In vivo efficacy on established MDA-MB-468 tumors. Also on record: species or system mice. Conditions: 12 days; paclitaxel 10 mg/kg i.p., every third day, four injections. The method, then: Nude 6-8 weeks female mice were injected with 2×10^6 of MDA-MB-468 cells in the 2nd left and 4th right mammary fat pads. When all tumors reached ˜0.1 cm^3 in volume, mice were divided into four groups, one received vehicles (i.e. DMSO injected intraperitoneally [i.p.] and scrambled peptide injected directly into tumors [i.t.]), another received paclitaxel (10 mg/kg, i.p.), the third received IRIS peptide at (10 mg/kg, i.t.), and the last received paclitaxel and IRIS peptide at half the concentrations, injected as above. Drugs were delivered every third day for total of four injections.
In Vivo efficacy of BRCA1-IRIS-inhibitory peptide. Six to eight week old female athymic SCID mice were injected in the second right and the fourth left mammary gland with 2.5×10^6 of MDAMB468 cells. Tumor growth was followed daily until tumors reached 100 mm^3. At this time mice were randomly grouped into four different groups that were injected: a) with DMSO (i.p.) and scrambled peptide (10 mg/kg) intra-tumoral (i.t.), b) injected with IRIS peptide (10 mg/kg, i.t.), c) injected with paclitaxel (10 mg/kg, i.p.), d) injected with IRIS peptide (5 mg/kg, i.t.), and paclitaxel (5 mg/kg, i.p.). […] Change in tumor volume was measured to monitor the efficacy of the treatments using caliper and is represented as percentage of volume at day 0 of treatment. […]

Experiment [4] relates to BRCA1-IRIS and survivin. The experiment is described as follows: IHC of MDA-MB-468 tumors for BRCA1-IRIS and survivin. The format is in vivo, mice. Conditions: MDA-MB-468 tumors after treatment. The source says:
To study that on the molecular level, sections from these tumors were stained with H&E or for BRCA1-IRIS or survivin using immunohistochemistry. […] Accordingly, it is proposed that inactivating BRCA1-IRIS in TNBC patients might sensitize to lower paclitaxel concentrations to avoid the adverse side effects and also to prevent the recurrence of these tumors at a later point.
Immunohistochemistry (IHC). Breast tissue microarrays comprised of normal, DCIS, invasive and metastatic were purchased from US Biomax, Inc. Paraffin embedded tissue sections were de-waxed in xylene and rehydrated in alcohol. Antigen-retrieval: for FOXO3a and survivin was by heating the slides in citrate buffer (10 μM, pH 6.0) using microwave (Power level 4) for 10 minutes, for BRCA1-IRIS by incubating slides in pepsin (10 μM) for 20 min at 37° C. Endogenous peroxidase activity was suppressed by treating the slides with 3% H2O2 for 10 min. Slides were then incubated for 1 hour at room temperature with antibodies to human FOXO3a or survivin (Cell Signaling Technology, USA 1:400), or overnight at 4° C. with monoclonal anti-human BRCA1-IRIS (1:75). Vectastain Elite ABC Kit was used to develop the staining using horseradish peroxidase labeled secondary antibodies (1 hour at room temperature).

Experiment [5] has as its system HME cells. Put plainly: cells. The note with it: Homo sapiens, read-out: IC50 of paclitaxel (viability).
Protocol: (§2) All cell lines were exposed to increasing concentrations of paclitaxel and BRCA1-IRIS expression, and cells' viability was then measured.
(§3) Cell viability measurement. Cell viability under different experimental conditions was determined using the MTS assay. Briefly, cells (2.5×10^4 cells per well) were seeded in 96-well plates and incubated overnight at 37° C. in 10% humidified CO2 atmosphere. The next day they were incubated with varying concentration of peptide, or inhibitors for 24 hours at 37° C. Cell viability was determined using cell Titer 96® Aqueous (Promega, Madison, Wis., USA) following manufacturer's instructions. Cell viability (%) was expressed as a ratio of treated cells to control cells×100. […] Each experiment was done in triplicate, repeated three separate times.
The test system of experiment [6] is HME/IRIS cells. The experiment is described as follows: cells. Conditions: Homo sapiens, read-out: IC50 of paclitaxel (viability).
Protocol: as §2, §3
Experiment [7] concerns MDA-MB-231 cells. The experiment is described as follows: cells. Conditions: Homo sapiens, MDA-MB-231, read-out: IC50 of paclitaxel (viability).
Protocol: as §2
(§4) Stable clones were then exposed to 0, 10 or 20 μM of EGFR (Erlotinib), ErbB2 (CP-724714), PI3′K/AKT (LY294002), p38 (SB203580), ERK (PD98059) or JNK (SP600125) inhibitors for 24 hours.
Experiment [8] deals with MDA-MB-468 cells. The experiment is described as follows: cells. Conditions: Homo sapiens, MDA-MB-468, read-out: IC50 of paclitaxel (viability).
Protocol: as §2, §4
For experiment [9], the system named is BT549 cells. The experiment is described as follows: cells. Conditions: Homo sapiens, BT-549, read-out: IC50 of paclitaxel (viability).
Protocol: as §2, §3

Regarding `CC(=O)O[C@H]1C(=O)[C@@]2(C)[C@H]([C@H](OC(=O)c3ccccc3)[C@]3(O)C[C@H](OC(=O)[C@H](O)[C@@H](NC(=O)c4ccccc4)c4ccccc4)C(C)=C1C3(C)C)[C@]1(OC(C)=O)CO[C@@H]1C[C@@H]2O` [paclitaxel], the results for the reduction in survival in experiment [1] (paclitaxel alone at 5 μM), in [1] (paclitaxel alone at 10 μM) and in [1] (paclitaxel alone at 20 μM) were roughly 50%, roughly 60% and roughly 70%, respectively. For the same molecule, the “BRCA1-IRIS expression in HME cells” value in experiment [2] (1 μM of paclitaxel for 1 or 3 weeks) is on record as “acquired-induction in BRCA1-IRIS expression was detected”; in experiment [2] (10 and 20 μM paclitaxel, 24 hours) it was “significantly upregulated BRCA1-IRIS expression”. Moreover, the “BRCA1-IRIS expression in HME/IRIS cells” value in experiment [2] (paclitaxel 24 hours, until ~50 μM) is recorded as “did not alter the expression of BRCA1-IRIS”. Besides, the “tumor size relative to control tumors” value in [3] is recorded as “half the size of the control tumors”. Further, the “BRCA1-IRIS and survivin expression in tumors (IHC)” value in experiment [4] was “significantly increase BRCA1-IRIS and survivin expression”. In addition, the IC50 in experiment [5] was roughly 5 µM; in experiment [6], roughly 50 µM; in [7] it was greater than 50 µM; in experiment [8], less than 20 µM; in experiment [9], roughly 35 µM.

What is called IC50 is the concentration at which inhibition is half-maximal.
